# Patent publication US20140296153A1, “Oligodendrocyte Differentiation” (priority 2011, published 2014)
# Experiments:
# SVZ cells [1] = assay: SVZ neurosphere forming assay (primary neurospheres); type: cell-based, mouse
# Experimental: Neurosphere forming and self-renewal assays were performed on SVZ cells seeded at clonal density, 2500 cells per well in 24-well cell culture plates in SFM containing 5 ng/ml EGF and 2.5 ng/ml FGF-2 and supplemented or not (control) with 1 μM Hp or 50 ng.ml^−1 hepatocyte growth factor (carrier free recombinant human HGF, R&D Systems, Lille, France). After 6 days, the numbers of primary neurospheres were determined. For self-renewal assay, neurospheres were collected, dissociated as single cells and seeded in SFM containing 5 ng/ml EGF and 2.5 ng/ml FGF-2 in 24 well plates. After 6 days, the number of secondary neurospheres was counted.
# Fluorescence images were recorded using an LSM 510 Meta confocal microscope or an Axioskop 2 Plus fluorescence microscope (both from Carl Zeiss). In all experiments, measurements were performed in the border of SVZ neurospheres where migrating cells form a cell monolayer. For the SVZ neurosphere forming and self-renewal assays the experiments were replicated in five independent culture preparations and each experimental condition was assayed in four different coverslips. For the remaining experiments, each condition was assayed in three different coverslips, and except where otherwise specified, the experiments were replicated in three independent culture preparations. Percentages of TUNEL or BrdU immunoreactive cells in SVZ cell cultures were calculated from cell counts in five independent microscopic fields in each coverslip with a x40 objective (approximately 200 cells per field). Software used was Axiovision, release 4.6 (Carl Zeiss). For SCCl experiments, the percentage of oligodendrocytic-like responding cells (with a Thromb/Hist ratio above 1.3) was calculated on the basis of one microscopic field per coverslip, containing approximately 100 cells (magnification, ×40).
# Neural stem-like cells are characterized in vitro by both their capacity to give rise to neurospheres and to self-renew when cultured in the presence of mitogens.
# SVZ cells [2] = assay: Single cell calcium imaging (SCCI) of oligodendrocytic differentiation; type: cell-based, mouse; conditions: 7 days
# Experimental: To investigate the influence of Hp on oligodendrocytic differentiation, SVZ neurospheres were allowed to develop for 7 days Hp (100 nm, 1 μM), in serum free medium devoid of growth factor at 37° C.
# To determine the functional differentiation pattern of SVZ cells, we analyzed the variations of intracellular calcium-free levels ([Ca^2+]i) in single cells following stimulation with 50 mM KCl, 100 μM histamine (Sigma-Aldrich, St. Louis, Mo. USA) and 0.1 U/ml thrombin (Sigma-Aldrich) stimulation. KCl depolarization causes an increase in [Ca^2+]i in neurons, whereas stimulation with histamine leads to an increase in [Ca^2+]i in stem/progenitor cells, while thrombin leads to an increase in [Ca^2+]i in oligodendrocytes. SVZ cultures were loaded for 40 minutes with 5 μM Fura—2/AM (Molecular Probes, Carlsbad, Calif., USA), 0.1% fatty acid-free BSA, and 0.02% pluronic acid F-127 (Molecular Probes) in Krebs solution (132 mM NaCl, 4 mM KCl, 1.4 mM MgCl2, 1 mM CaCl2, 6 mM glucose, 10 mM HEPES, pH 7.4), in an incubator with 5% CO2 and 95% atmospheric air at 37° C. After a 10-minute postloading period at room temperature (RT) in the same medium without Fura-2/AM and pluronic acid, to obtain a complete hydrolysis of the probe, the glass coverslip was mounted on an RC-20 chamber in a PH3 platform (Warner Instruments, Hamden, Conn., USA) on the stage of an inverted fluorescence microscope (Axiovert 200, Carl Zeiss). […] The variations of [Ca^2+]i were evaluated by quantifying the ratio of the fluorescence emitted at 510 nm following alternate excitation (750 msec) at 340 and 380 nm, using a Lambda DG4 apparatus (Sutter Instrument, Novato, Calif., USA) and a 510 nm band-pass filter (Carl Zeiss) before fluorescence acquisition with a x40 objective and a CoolSNAP digital camera (Roper Scientific, Trenton, N.J., USA). […] KCl, histamine, and thrombin peaks given by the normalized ratios of fluorescence at 340/380 nm, at the proper time periods, were used to calculate the ratios of the responses to histamine/KCl (Hist/KCl-neuronal-like profile) and to thrombin/histamine (Throm/Hist-oligodendrocytic-like profile).
# Fluorescence images were recorded using an LSM 510 Meta confocal microscope or an Axioskop 2 Plus fluorescence microscope (both from Carl Zeiss). […] Percentages of TUNEL or BrdU immunoreactive cells in SVZ cell cultures were calculated from cell counts in five independent microscopic fields in each coverslip with a x40 objective (approximately 200 cells per field). […] For SCCl experiments, the percentage of oligodendrocytic-like responding cells (with a Thromb/Hist ratio above 1.3) was calculated on the basis of one microscopic field per coverslip, containing approximately 100 cells (magnification, ×40). […]
smiles,measurement,setting,value
"CC(C)C[C@H](NC(=O)[C@H](Cc1ccccc1)NC(=O)[C@H](CCCCN)NC(=O)[C@H](Cc1ccccc1)NC(=O)[C@H](CC(N)=O)NC(=O)[C@@H](NC(=O)[C@@H]1CCCN1)C(C)C)C(=O)N[C@@H](CO)C(=O)N[C@@H](Cc1cnc[nH]1)C(=O)O [Hp, PVNFKFLSH]",decrease of the number of primary neurospheres,SVZ cells [1]; 1 μm Hp during 6 days,15%
same,number of primary neurospheres (control 100%),"SVZ cells [1]; Hp 1 μM, 6 days, SFM with 5 ng/ml EGF and 2.5 ng/ml FGF-2",85.13±3.86%
same,cells responding with a Throm/Hist ratio above 1.3 (oligodendrocyte-like responding cells),"SVZ cells [2]; Hp 100 nM, 9 coverslips",15.84±3.85%
same,cells responding with a Throm/Hist ratio above 1.3 (oligodendrocyte-like responding cells),"SVZ cells [2]; Hp 1 μM, 12 coverslips",14.51±4.09%
same,cells responding with a Throm/Hist ratio above 1.3 (oligodendrocyte-like responding cells),"SVZ cells [2]; Hp treatment (100 nM or 1 μM), rounded",around 15%
